Laboratory results taken from patent US11382894B2, “Pharmaceutical compositions for use in the treatment of cardiovascular calcification” (INSERM (INSTITUT NATIONAL DE LA SANTE ET DE LA RECHERCHE …, priority 2017, dated 2022).

Columns and labels:
[1] = system: Human valvular interstitial cells (VICs); assay: Calcium content of human valvular interstitial cells cultured in procalcifying conditions (O-Cresolphthalein colorimetric assay); type: cell-based; conditions: Pi 3 mM; for VICs calcium content: mean±SEM; for Effect on calcium content of valvular interstitial cells (in words): procalcifying conditions
Method: (§1) Materials and methods: Human valvular interstitial cells (VICs) were cultured in procalcifying conditions using inorganic phosphate (Pi: 3 mM) for 14 days. N-acetyl-S-farnesyl-L-cysteine (AFC)—sEH phosphatase domain inhibitor—was added at concentrations, ranging from 0.1 to 5 μM (n=5-6 per group). VICs aortic calcium content was determined using a calcium colorimetric assay with O-Cresolphthalein.
as §1, with “10” for “14”, “Ebselen—sEH” for “N-acetyl-S-farnesyl-L-cysteine (AFC)—sEH”, “the concentrations of” for “concentrations, ranging from”, “and 1” for “to 5”, “(n=4” for “(n=5-6”

Rat aortic rings = assay: Calcium content of rat aortic rings cultured ex vivo in procalcifying conditions (O-Cresolphthalein colorimetric assay); type: cell-based; conditions: Pi 3.8 mM, 7 days; for Effect on calcium content of rat aortas (in words): procalcifying conditions; for Aortic calcium content: Pi alone = 100%
Method: Materials and methods: Rat aortic rings were cultured in procalcifying conditions using inorganic phosphate (Pi: 3.8 mM) for 7 days. […] Rat aortic calcium content was determined using a calcium colorimetric assay with O-Cresolphthalein.
as §1, with “Rat aortic rings” for “Human valvular interstitial cells (VICs)”, “3.8” for “3”, “7” for “14”, “10” for “5”, “(n=4-21” for “(n=5-6”, “Rat” for “VICs”
Materials and methods: Rat aortic rings were cultured in procalcifying conditions using inorganic phosphate (Pi: 3.8 mM) for 7 days in absence and in presence of ebselen at a concentration of 1 and 10 μM (n=6-8 per group).

[2] = rat aortic rings, compound 1 μM
[3] = rat aortic rings, compound 10 μM

Compound | Alizarin Red staining ([1]; human VICs, 14 days) | VICs calcium content ([1]; human VICs, 14 days, compound 0.1 μM, Pi alone 90.3±4.6 μg) [µg] | VICs calcium content ([1]; human VICs, 14 days, compound 1 μM, Pi alone 90.3±4.6 μg) [µg] | VICs calcium content ([1]; human VICs, 14 days, compound 5 μM, Pi alone 90.3±4.6 μg) [µg] | Effect on calcium content of valvular interstitial cells (in words) ([1]; 14 days) | Effect on calcium content of rat aortas (in words) (Rat aortic rings) | Alizarin Red and VonKossa histochemical staining (Rat aortic rings; rat aortic rings) | Aortic calcium content (Rat aortic rings; rat aortic rings, compound 0.1 μM) [%] | Aortic calcium content (Rat aortic rings; [2]) [%] | Aortic calcium content (Rat aortic rings; [3]) [%] | VICs calcium content ([1]; human VICs, 10 days, compound 0.1 μM, Pi alone = 100%) [%] | VICs calcium content ([1]; human VICs, 10 days, compound 1 μM, Pi alone = 100%) [%] | Effect on calcium content of valvular interstitial cells (in words) ([1]; 10 days)
CC(=O)N[C@@H](CSC/C=C(\C)CC/C=C(\C)CCC=C(C)C)C(=O)O [AFC, N-acetyl-S-farnesyl-L-cysteine] | confirmed these results | 76.7 ± 5.7 | 51.1 ± 2.9 | 45.8 ± 2 | dose-dependently reduces | dose-dependently reduces | confirmed these results | 83.6±9.1 | 74.2±2.9 | 54.5±12 |  |  | 
O=c1c2ccccc2[se]n1-c1ccccc1 [ebselen] |  |  |  |  |  | dose-dependently reduces |  |  | 77±8 | 62±7 | 88.8±11 | 67.6±7.2 | dose-dependently reduces
